Experimental data taken from US8163929B2, “Dihydropyridone amides as P2X7 modulators” (Roche Palo Alto LLC, priority 2008, dated 2012).

molecular target: T1, P2X7 (UniProt Q99572); test: P2X7 activity of Table 1; assay type: cell-based; conditions: pIC50 values for P2X7
T1 sequence (Q99572 1-595): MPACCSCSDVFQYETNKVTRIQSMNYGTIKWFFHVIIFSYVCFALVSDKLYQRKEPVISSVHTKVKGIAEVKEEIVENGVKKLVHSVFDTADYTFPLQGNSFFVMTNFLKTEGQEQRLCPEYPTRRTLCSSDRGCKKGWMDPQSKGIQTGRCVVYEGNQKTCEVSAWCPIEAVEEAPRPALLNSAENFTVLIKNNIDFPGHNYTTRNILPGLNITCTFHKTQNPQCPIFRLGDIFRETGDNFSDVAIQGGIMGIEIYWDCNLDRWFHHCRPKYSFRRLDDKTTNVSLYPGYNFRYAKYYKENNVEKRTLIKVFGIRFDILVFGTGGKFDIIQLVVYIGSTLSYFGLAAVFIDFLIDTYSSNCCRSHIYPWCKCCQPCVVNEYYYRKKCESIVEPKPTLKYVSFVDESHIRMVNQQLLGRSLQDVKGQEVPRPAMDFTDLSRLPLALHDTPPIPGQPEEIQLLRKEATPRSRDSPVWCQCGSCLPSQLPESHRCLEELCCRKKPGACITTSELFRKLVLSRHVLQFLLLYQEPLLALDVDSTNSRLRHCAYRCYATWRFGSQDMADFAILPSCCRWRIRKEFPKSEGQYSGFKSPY
Outline: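 FLIPR calcium flux with fluo-3 in 1321N1 cells expressing human P2X7 and HEK293 cells expressing rat P2X7, in HBSS with 2 mM CaCl2 and 2.5 mM probenecid. Antagonist pre-incubated 20 min at room temperature, then BzATP added (100 μM human, 5 μM rat). Peak response over 5 min normalised to 5 μM ionomycin.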

SMILES	pIC50
CN1C=C(C(=O)Nc2cc(-c3ccn[nH]c3=O)ccc2F)[C@H](c2ccc(F)cc2)CC1=O [Compound 123, (S)-4-(4-Fluoro-phenyl)-1-methyl-6-oxo-1,4,5,6-tetrahydro-pyridine-3-carboxylic acid [2-fluoro-5-(3-oxo-2,3-dihydro-pyridazin-4-yl)-phenyl]-amide]	7.58
Cc1ccc(-c2nnnn2C)cc1NC(=O)C1=CNC(=O)C[C@H]1c1ccc(F)cc1 [Compound 9, (S)-4-(4-Fluoro-phenyl)-6-oxo-1,4,5,6-tetrahydro-pyridine-3-carboxylic acid [2-methyl-5-(1-methyl-1H-tetrazol-5-yl)-phenyl]-amide]	6.1767
Cc1cc(-c2cccc(NC(=O)C3=CNC(=O)C[C@H]3c3ccc(F)cc3)c2)n(C)n1 [Compound 20, (S)-4-(4-Fluoro-phenyl)-6-oxo-1,4,5,6-tetrahydro-pyridine-3-carboxylic acid [3-(2,5-dimethyl-2H-pyrazol-3-yl)-phenyl]-amide]	5.31
Cc1cc(-c2ccc(C)c(NC(=O)C3=CNC(=O)C[C@H]3c3ccc(F)cc3)c2)n(C)n1 [Compound 21, (S)-4-(4-Fluoro-phenyl)-6-oxo-1,4,5,6-tetrahydro-pyridine-3-carboxylic acid [5-(2,5-dimethyl-2H-pyrazol-3-yl)-2-methyl-phenyl]-amide]	6.525
Cc1ccc(-n2cccc2)cc1NC(=O)C1=CNC(=O)CC1c1cccc(F)c1 (centres unmarked) [Compound 1, 4-(3-Fluoro-phenyl)-6-oxo-1,4,5,6-tetrahydro-pyridine-3-carboxylic acid (2-methyl-5-pyrrol-1-yl-phenyl)-amide]	6.985
Cc1ccc(-c2cc(C)n(CCO)n2)cc1NC(=O)C1=CNC(=O)CC1c1cc(F)cc(F)c1 (centres unmarked) [Compound 95, 4-(3,5-Difluoro-phenyl)-6-oxo-1,4,5,6-tetrahydro-pyridine-3-carboxylic acid {5-[1-(2-hydroxy-ethyl)-5-methyl-1H-pyrazol-3-yl]-2-methyl-phenyl}-amide]	7.85
Cc1ccc(-c2ccncc2)cc1NC(=O)C1=CNC(=O)C[C@H]1c1ccc(F)cc1 [Compound 59, (S)-4-(4-Fluoro-phenyl)-6-oxo-1,4,5,6-tetrahydro-pyridine-3-carboxylic acid (2-methyl-5-pyridin-4-yl-phenyl)-amide]	7.22
Cc1ccc(-c2cncc(=O)[nH]2)cc1NC(=O)C1=CNC(=O)C[C@H]1c1ccc(F)cc1 [Compound 82, (S)-4-(4-Fluoro-phenyl)-6-oxo-1,4,5,6-tetrahydro-pyridine-3-carboxylic acid [2-methyl-5-(6-oxo-1,6-dihydro-pyrazin-2-yl)-phenyl]-amide]	5.395
Cc1cc(-c2cccc(NC(=O)C3=CNC(=O)C[C@H]3c3ccc(F)cc3)c2)nn1C [Compound 18, (S)-4-(4-Fluoro-phenyl)-6-oxo-1,4,5,6-tetrahydro-pyridine-3-carboxylic acid [3-(1,5-dimethyl-1H-pyrazol-3-yl)-phenyl]-amide]	5.72
Cc1ccc(-n2cc(C)c(=O)[nH]c2=O)cc1NC(=O)C1=CN(C)C(=O)C[C@H]1c1ccc(F)cc1 [Compound 129, (S)-4-(4-Fluoro-phenyl)-1-methyl-6-oxo-1,4,5,6-tetrahydro-pyridine-3-carboxylic acid [2-methyl-5-(5-methyl-2,4-dioxo-3,4-dihydro-2H-pyrimidin-1-yl)-phenyl]-amide]	7.945
Cc1cc(-c2ccc(C)c(NC(=O)C3=CN(C)C(=O)C[C@H]3c3ccc(F)cc3)c2)n[nH]1 [Compound 31, (S)-4-(4-Fluoro-phenyl)-1-methyl-6-oxo-1,4,5,6-tetrahydro-pyridine-3-carboxylic acid [2-methyl-5-(5-methyl-1H-pyrazol-3-yl)-phenyl]-amide]	7.35
Cc1ccc(-c2cc(C)n(C[C@@H](O)CO)n2)cc1NC(=O)C1=CN(C)C(=O)C[C@H]1c1ccc(F)cc1 [Compound 64, (S)-4-(4-Fluoro-phenyl)-1-methyl-6-oxo-1,4,5,6-tetrahydro-pyridine-3-carboxylic acid {5-[1-((R)-2,3-dihydroxy-propyl)-5-methyl-1H-pyrazol-3-yl]-2-methyl-phenyl}-amide]	7.585
Cc1ccc(=O)n(-c2ccc(C)c(NC(=O)C3=CNC(=O)C[C@H]3c3ccc(F)cc3)c2)n1 [Compound 78, (S)-4-(4-Fluoro-phenyl)-6-oxo-1,4,5,6-tetrahydro-pyridine-3-carboxylic acid [2-methyl-5-(3-methyl-6-oxo-6H-pyridazin-1-yl)-phenyl]-amide]	7.31

Continued, values first:

pIC50	SMILES
7.515	Cc1cnn(-c2ccc(C)c(NC(=O)C3=CN(C)C(=O)C[C@H]3c3ccc(F)cc3)c2)c(=O)c1 [Compound 136, (S)-4-(4-Fluoro-phenyl)-1-methyl-6-oxo-1,4,5,6-tetrahydro-pyridine-3-carboxylic acid [2-methyl-5-(4-methyl-6-oxo-6H-pyridazin-1-yl)-phenyl]-amide]
7.575	CCn1c(=O)cnn(-c2ccc(C)c(NC(=O)C3=CNC(=O)C[C@H]3c3ccc(F)cc3)c2)c1=O [Compound 67, (S)-4-(4-Fluoro-phenyl)-6-oxo-1,4,5,6-tetrahydro-pyridine-3-carboxylic acid [5-(4-ethyl-3,5-dioxo-4,5-dihydro-3H-[1,2,4]triazin-2-yl)-2-methyl-phenyl]-amide]
7.78	Cc1ccc(-c2nnc(C)n2C)cc1NC(=O)C1=CNC(=O)C[C@H]1c1ccc(F)cc1 [Compound 34, (S)-4-(4-Fluoro-phenyl)-6-oxo-1,4,5,6-tetrahydro-pyridine-3-carboxylic acid [5-(4,5-dimethyl-4H-[1,2,4]triazol-3-yl)-2-methyl-phenyl]-amide]
7.195	Cc1ccc(-c2ccnn(C)c2=O)cc1NC(=O)C1=CN(CC(=O)N(C)C)C(=O)C[C@H]1c1ccc(F)cc1 [Compound 128, (S)-1-Dimethylcarbamoylmethyl-4-(4-fluoro-phenyl)-6-oxo-1,4,5,6-tetrahydro-pyridine-3-carboxylic acid [2-methyl-5-(2-methyl-3-oxo-2,3-dihydro-pyridazin-4-yl)-phenyl]-amide]
7.2	COC[C@H](O)Cn1nc(-c2ccc(C)c(NC(=O)C3=CN(C)C(=O)C[C@H]3c3cccc(F)c3)c2)cc1C [Compound 90, (S)-4-(3-Fluoro-phenyl)-1-methyl-6-oxo-1,4,5,6-tetrahydro-pyridine-3-carboxylic acid {5-[1-((R)-2-hydroxy-3-methoxy-propyl)-5-methyl-1H-pyrazol-3-yl]-2-methyl-phenyl}-amide]
7.99	Cc1cnn(-c2ccc(C)c(NC(=O)C3=CNC(=O)C[C@H]3c3ccc(F)cc3)c2)c1 [Compound 29, (S)-4-(4-Fluoro-phenyl)-6-oxo-1,4,5,6-tetrahydro-pyridine-3-carboxylic acid [2-methyl-5-(4-methyl-pyrazol-1-yl)-phenyl]-amide]
7.5	Cc1ccc(-n2ncc(=O)n(CCO)c2=O)cc1NC(=O)C1=CN(C)C(=O)C[C@H]1c1ccc(F)cc1 [Compound 100, (S)-4-(4-Fluoro-phenyl)-1-methyl-6-oxo-1,4,5,6-tetrahydro-pyridine-3-carboxylic acid {5-[4-(2-hydroxy-ethyl)-3,5-dioxo-4,5-dihydro-3H-[1,2,4]triazin-2-yl]-2-methyl-phenyl}-amide]
